Measurements reported in article PMC8298439, “Development of a mechanistic model to predict synthetic biotic activity in healthy volunteers and patients with phenylketonuria” (Communications Biology, 2021).

Target: T1, PAL (phenylalanine ammonia lyase) of SYNB1618 (Photorhabdus laumondii, UniProt Q7N4T3)
T1 construct: gene plu2234; expressed in cytosol of engineered E. coli Nissle 1917 (SYNB1618, with PheP transporter, dapA deleted); whole-cell assay, LAAD not induced; multimeric
Assay: d5-TCA formation from d5-Phe by whole SYNB1618 cells, LC-MS/MS
Assay type: cell-based
Conditions: whole-cell product (feedback) inhibition; 20 mM d5-Phe; 0.0–8.0 mM exogenous unlabeled TCA; 60 min

T1 sequence (Q7N4T3 entry or part of it): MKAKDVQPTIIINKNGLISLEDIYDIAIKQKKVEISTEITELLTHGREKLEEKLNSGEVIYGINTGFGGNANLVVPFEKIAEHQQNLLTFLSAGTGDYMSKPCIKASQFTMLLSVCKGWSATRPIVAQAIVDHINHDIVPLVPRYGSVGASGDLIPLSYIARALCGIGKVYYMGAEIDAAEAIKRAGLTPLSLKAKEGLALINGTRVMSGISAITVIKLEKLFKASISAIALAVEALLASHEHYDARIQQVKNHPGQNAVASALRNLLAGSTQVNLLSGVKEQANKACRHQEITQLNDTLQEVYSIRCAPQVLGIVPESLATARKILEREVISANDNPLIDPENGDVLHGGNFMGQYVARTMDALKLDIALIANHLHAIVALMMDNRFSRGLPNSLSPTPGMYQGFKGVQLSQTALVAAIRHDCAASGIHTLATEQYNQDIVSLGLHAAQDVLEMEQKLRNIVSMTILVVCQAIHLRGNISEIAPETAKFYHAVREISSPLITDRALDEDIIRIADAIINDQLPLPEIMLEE

Compound: O=C(O)/C=C/c1ccccc1 [TCA]
- % decrease of de novo d5-TCA production: up to 60
